# Patent publication US5081225A, “Gram-positive and gram-negative antibacterial compounds from the microorganism, Janthinobacterium lividum” (E. R. Squibb & Sons, Inc., priority 1989, dated 1992)
# Columns and labels:
# [1] = stability under acidic conditions (observed during isolation); assay type: physicochemical
# Description: The methanol extract is added to MCI GEL CHP20P™ (CHP20P) in water and the mixture is stirred for one hour. The charged resin is collected by vacuum filtration and washed with methanol, water, and acetonitrile. The charged resin is then packed in a column and the antibiotics are eluted with acetonitrile-water-formic acid. Further purification is achieved by chromatography on SEPHADEX LH-20™ in acetonitrile-water. Partial resolution of the three antibiotics, janthinocin A, B, and C, is effected by chromatography on CHP20P eluting with a gradient of acetonitrile-water-formic acid. Final separation and purification of janthinocins B and C is achieved by chromaography on CHP20P eluting with an acetonitrile-aqueous ammonium dihydrogen phosphate buffer gradient, followed by desalting on CHP20P, eluting with acetonitrile-water-formic acid, to give the pure antibiotics as off white powders. […] When janthinocin C is present, it co-elutes with janthinocin B in each of the initial chromatographies.
# Staphylococcus aureus = assay: agar dilution MIC, aerobic organisms
# Streptococcus faecalis = assay: agar dilution MIC, aerobic organisms
# Streptococcus agalactiae = assay: agar dilution MIC, aerobic organisms
# Micrococcus luteus = assay: agar dilution MIC, aerobic organisms; settings: Table 1; Micrococcus luteus SC 2495
# Escherichia coli = assay: agar dilution MIC, aerobic organisms; settings: Table 1
# Klebsiella aerogenes = assay: agar dilution MIC, aerobic organisms; settings: Table 1; Klebsiella aerogenes SC 10440
# Klebsiella pneumoniae = assay: agar dilution MIC, aerobic organisms; settings: Table 1; Klebsiella pneumoniae SC 9527
# Proteus mirabilis = assay: agar dilution MIC, aerobic organisms; settings: Table 1; Proteus mirabilis SC 3855
# Proteus rettgeri = assay: agar dilution MIC, aerobic organisms; settings: Table 1; Proteus rettgeri SC 8479
# Salmonella typhosa = assay: agar dilution MIC, aerobic organisms; settings: Table 1; Salmonella typhosa SC 1195
# Enterobacter cloacae = assay: agar dilution MIC, aerobic organisms; settings: Table 1; Enterobacter cloacae SC 8236
# Enterobacter aerogenes = assay: agar dilution MIC, aerobic organisms; settings: Table 1; Enterobacter aerogenes SC 10078
# Citrobacter freundii = assay: agar dilution MIC, aerobic organisms; settings: Table 1; Citrobacter freundii SC 9518
# Serratia marcescens = assay: agar dilution MIC, aerobic organisms; settings: Table 1; Serratia marcescens SC 9783
# Pseudomonas aeruginosa = assay: agar dilution MIC, aerobic organisms; settings: Table 1
# Bacillus subtilis = assay: agar dilution MIC, aerobic organisms; settings: Table 2; Bacillus subtilis SC 3777
# [2] = tested on: Staphylococcus epidermidis; assay: agar dilution MIC, aerobic organisms; settings: Table 2
# [3] = tested on: Staphylococcus saprophyticus; assay: agar dilution MIC, aerobic organisms; settings: Table 2; Staphylococcus saprophyticus SC 12875
# Nocardia asteroides = assay: agar dilution MIC, aerobic organisms; settings: Table 2; Nocardia asteroides SC 2626
# [4] = agar dilution MIC, aerobic organisms; settings: Table 2; Nocardia monocytogenes SC 8523
# [5] = tested on: Acinetobacter calcoaceticus; assay: agar dilution MIC, aerobic organisms; settings: Table 1; Acinetobacter calcoaceticus SC 8333
# Shigella sonnei = assay: agar dilution MIC, aerobic organisms; assay type: cell-based; settings: Table 1; Shigella sonnei SC 8449
# Description: The composition of K-10 agar was:
# Proteus vulgaris = assay: agar dilution MIC, aerobic organisms; settings: Table 1; Proteus vulgaris SC 9416
# [6] = Table 1, Staphylococcus aureus SC 1276
# [7] = Table 1, Staphylococcus aureus SC 2399
# [8] = Table 1, Staphylococcus aureus SC 2400
# [9] = Table 1, Staphylococcus aureus SC 10165
# [10] = Table 2, Staphylococcus aureus SC 2399 (Penicillin S)
# [11] = Table 2, Staphylococcus aureus SC 2400 (Penicillin R)
# [12] = Table 2, Staphylococcus aureus SC 3184 (Methicillin R)
# [13] = Table 2, Staphylococcus aureus SC 9593 (Penicillin R)
# [14] = Table 2, Staphylococcus aureus SC 9998 (Penicillin R)
# [15] = Table 2, Staphylococcus aureus SC 10014 (Methicillin R)
# [16] = Table 2, Staphylococcus aureus SC 10016 (Tetracycline R)
# [17] = Table 2, Staphylococcus aureus SC 10020 (Methicillin R)
# [18] = Table 2, Staphylococcus aureus SC 10820 (Erythromycin R)
# [19] = Table 2, Staphylococcus aureus SC 11239 (Gentamicin R)
# [20] = Table 2, Staphylococcus aureus SC 12691 (Erythromycin R)
# [21] = Table 1, Streptococcus faecalis SC 9011
# [22] = Table 2, Streptococcus faecalis SC 9011
# [23] = Table 2, Streptococcus faecalis SC 9376
# [24] = Table 2, Streptococcus faecalis SC 10938
# [25] = Table 1, Streptococcus agalactiae SC 9287
# [26] = Table 2, Streptococcus agalactiae SC 9285
# [27] = Table 2, Streptococcus agalactiae SC 9287
# [28] = Staphylococcus epidermidis SC 9052 (Penicillin S)
# [29] = Staphylococcus epidermidis SC 9083 (Penicillin R)
# [30] = Staphylococcus epidermidis SC 9087 (Penicillin R)
# [31] = Staphylococcus epidermidis SC 9607 (Penicillin R)
# [32] = Staphylococcus epidermidis SC 10547 (Penicillin R)
substance,measurement,setting,value
janthinocin A,chemical stability,[1],converted to janthinocin C under acidic conditions
same,MIC,Staphylococcus aureus; [6],0.8 µg/mL
same,MIC,Staphylococcus aureus; [7],1.6 µg/mL
same,MIC,Staphylococcus aureus; [8],1.6 µg/mL
same,MIC,Staphylococcus aureus; [9],1.6 µg/mL
same,MIC,Staphylococcus aureus; [10],0.8 µg/mL
same,MIC,Staphylococcus aureus; [11],0.4 µg/mL
same,MIC,Staphylococcus aureus; [12],1.6 µg/mL
same,MIC,Staphylococcus aureus; [13],0.8 µg/mL
same,MIC,Staphylococcus aureus; [14],0.8 µg/mL
same,MIC,Staphylococcus aureus; [15],0.4 µg/mL
same,MIC,Staphylococcus aureus; [16],0.2 µg/mL
same,MIC,Staphylococcus aureus; [17],0.4 µg/mL
same,MIC,Staphylococcus aureus; [18],0.8 µg/mL
same,MIC,Staphylococcus aureus; [19],0.8 µg/mL
same,MIC,Staphylococcus aureus; [20],0.4 µg/mL
same,MIC,Streptococcus faecalis; [21],1.6 µg/mL
same,MIC,Streptococcus faecalis; [22],0.8 µg/mL
same,MIC,Streptococcus faecalis; [23],0.8 µg/mL
same,MIC,Streptococcus faecalis; [24],1.6 µg/mL
same,MIC,Streptococcus agalactiae; [25],0.2 µg/mL
same,MIC,Streptococcus agalactiae; [26],0.4 µg/mL
same,MIC,Streptococcus agalactiae; [27],0.4 µg/mL
same,MIC,Micrococcus luteus,0.2 µg/mL
same,MIC,Escherichia coli; Escherichia coli SC 8294,25 µg/mL
same,MIC,Escherichia coli; Escherichia coli SC 10896,6.3 µg/mL
same,MIC,Escherichia coli; Escherichia coli SC 10909,6.3 µg/mL
same,MIC,Klebsiella aerogenes,25 µg/mL
same,MIC,Klebsiella pneumoniae,25 µg/mL
same,MIC,Proteus mirabilis,100 µg/mL
same,MIC,Proteus rettgeri,50 µg/mL
same,MIC,Salmonella typhosa,12.5 µg/mL
same,MIC,Enterobacter cloacae,25 µg/mL
same,MIC,Enterobacter aerogenes,25 µg/mL
same,MIC,Citrobacter freundii,25 µg/mL
same,MIC,Serratia marcescens,25 µg/mL
same,MIC,Pseudomonas aeruginosa; Pseudomonas aeruginosa SC 8329,100 µg/mL
same,MIC,Pseudomonas aeruginosa; Pseudomonas aeruginosa SC 9545,50 µg/mL
same,MIC,Bacillus subtilis,0.4 µg/mL
same,MIC,[2]; [28],0.8 µg/mL
same,MIC,[2]; [29],0.8 µg/mL
same,MIC,[2]; [30],0.8 µg/mL
same,MIC,[2]; [31],0.4 µg/mL
same,MIC,[2]; [32],0.8 µg/mL
same,MIC,[3],0.8 µg/mL
same,MIC,Nocardia asteroides,0.8 µg/mL
same,MIC,[4],0.8 µg/mL
janthinocin B,MIC,Staphylococcus aureus; [6],0.4 µg/mL
same,MIC,Staphylococcus aureus; [7],1.6 µg/mL
same,MIC,Staphylococcus aureus; [8],1.6 µg/mL
same,MIC,Staphylococcus aureus; [9],0.8 µg/mL
same,MIC,Staphylococcus aureus; [10],0.4 µg/mL
same,MIC,Staphylococcus aureus; [11],0.8 µg/mL
same,MIC,Staphylococcus aureus; [12],0.4 µg/mL
same,MIC,Staphylococcus aureus; [13],0.4 µg/mL
same,MIC,Staphylococcus aureus; [14],0.1 µg/mL
same,MIC,Staphylococcus aureus; [15],0.4 µg/mL
same,MIC,Staphylococcus aureus; [16],0.4 µg/mL
same,MIC,Staphylococcus aureus; [17],0.4 µg/mL
same,MIC,Staphylococcus aureus; [18],0.2 µg/mL
same,MIC,Staphylococcus aureus; [19],0.2 µg/mL
same,MIC,Staphylococcus aureus; [20],0.4 µg/mL
same,MIC,Streptococcus faecalis; [21],1.6 µg/mL
same,MIC,Streptococcus faecalis; [22],1.6 µg/mL
same,MIC,Streptococcus faecalis; [23],1.6 µg/mL
same,MIC,Streptococcus faecalis; [24],0.8 µg/mL
same,MIC,Streptococcus agalactiae; [25],< 0.05 µg/mL
same,MIC,Streptococcus agalactiae; [26],< 0.05 µg/mL
same,MIC,Streptococcus agalactiae; [27],< 0.05 µg/mL
same,MIC,Micrococcus luteus,0.2 µg/mL
same,MIC,Escherichia coli; Escherichia coli SC 8294,25 µg/mL
same,MIC,Escherichia coli; Escherichia coli SC 10896,6.3 µg/mL
same,MIC,Escherichia coli; Escherichia coli SC 10909,6.3 µg/mL
same,MIC,Klebsiella aerogenes,50 µg/mL
same,MIC,Klebsiella pneumoniae,25 µg/mL
same,MIC,Proteus mirabilis,100 µg/mL
same,MIC,Proteus rettgeri,100 µg/mL
same,MIC,Salmonella typhosa,12.5 µg/mL
same,MIC,Enterobacter cloacae,50 µg/mL
same,MIC,Enterobacter aerogenes,50 µg/mL
same,MIC,Citrobacter freundii,25 µg/mL
same,MIC,Serratia marcescens,50 µg/mL
same,MIC,Pseudomonas aeruginosa; Pseudomonas aeruginosa SC 8329,100 µg/mL
same,MIC,Pseudomonas aeruginosa; Pseudomonas aeruginosa SC 9545,50 µg/mL
same,MIC,[5],25 µg/mL
same,MIC,Bacillus subtilis,0.1 µg/mL
same,MIC,[2]; [28],0.4 µg/mL
same,MIC,[2]; [29],0.4 µg/mL
same,MIC,[2]; [30],0.4 µg/mL
same,MIC,[2]; [31],0.4 µg/mL
same,MIC,[2]; [32],0.4 µg/mL
same,MIC,[3],0.4 µg/mL
same,MIC,Nocardia asteroides,3.1 µg/mL
same,MIC,[4],1.6 µg/mL
janthinocin C,MIC,Shigella sonnei,100 µg/mL
same,MIC,Staphylococcus aureus; [6],1.6 µg/mL
same,MIC,Staphylococcus aureus; [7],3.1 µg/mL
same,MIC,Staphylococcus aureus; [8],3.1 µg/mL
same,MIC,Staphylococcus aureus; [9],1.6 µg/mL
same,MIC,Streptococcus faecalis; [21],12.5 µg/mL
same,MIC,Streptococcus agalactiae; [25],0.8 µg/mL
same,MIC,Micrococcus luteus,1.6 µg/mL
same,MIC,Escherichia coli; Escherichia coli SC 8294,> 100 µg/mL
same,MIC,Escherichia coli; Escherichia coli SC 10857,50 µg/mL
same,MIC,Escherichia coli; Escherichia coli SC 10896,50 µg/mL
same,MIC,Escherichia coli; Escherichia coli SC 10909,25 µg/mL
same,MIC,Klebsiella aerogenes,100 µg/mL
same,MIC,Klebsiella pneumoniae,> 100 µg/mL
same,MIC,Proteus mirabilis,> 100 µg/mL
same,MIC,Proteus rettgeri,> 100 µg/mL
same,MIC,Proteus vulgaris,> 100 µg/mL
same,MIC,Salmonella typhosa,100 µg/mL
same,MIC,Enterobacter cloacae,> 100 µg/mL
same,MIC,Enterobacter aerogenes,> 100 µg/mL
same,MIC,Citrobacter freundii,100 µg/mL
same,MIC,Serratia marcescens,> 100 µg/mL
same,MIC,Pseudomonas aeruginosa; Pseudomonas aeruginosa SC 8329,> 100 µg/mL
same,MIC,Pseudomonas aeruginosa; Pseudomonas aeruginosa SC 9545,> 100 µg/mL
same,MIC,[5],25 µg/mL
